Data from paper PMC7466159, “Anti-Metastasis Fascin Inhibitors Decrease the Growth of Specific Subtypes of Cancers” (Cancers, 2020).

Assays:
[1] = tested on: MDA-MB-468 triple-negative breast cancer cells; test: Cell growth assay, MDA-MB-468; type: cell-based; settings: MDA-MB-468 cells in culture, 10% serum
[2] = tested on: BT-20 triple-negative breast cancer cells; test: Cell growth assay, BT-20; type: cell-based; settings: BT-20 cells in culture, 10% serum
[3] = tested on: HCC38 triple-negative breast cancer cells; test: Cell growth assay, HCC38; type: cell-based; settings: HCC38 cells in culture, 10% serum
MDA-MB-468 tumor cells = test: MDA-MB-468 breast cancer model in NSG mice (tumor growth, overall survival); type: in vivo; settings: treatment from Day 14, compared with the control group
Description: MDA-MB-468 cells and HCC38 cells grew in the presence of EGF with or without NP-G2-044. […] Finally, we used the animal model to investigate whether the primary tumor growth of MDA-MB-468 cells was sensitive to fascin inhibitors. MDA-MB-468 tumor cells were implanted into the mammary gland of NSG mice, and these mice were randomly divided into four groups. One group of mice was used as control (Figure 6I). The second group of mice was treated with the fascin inhibitor NP-G2-044 (Figure 6I). The third group was treated with the EGFR inhibitor gefitnib (Figure 6I), and the fourth group was treated with the combination of NP-G2-044 + gefitinib (Figure 6I). […] We dissected the primary tumor tissues 55 days after the tumor implantation from some mice. […] Furthermore, the overall survival of the mice was analyzed (Figure 6K).
For the breast cancer model, MDA-MB-468 cells (5 × 10^6) suspended in PBS-matrigel (v/v, 1:1) were injected subcutaneously into the abdominal mammary gland area of female NSG mice on Day 0 as previously described. Starting on Day 14, NP-G2-044 was given once a day for 5 days every week by gavage at 300 mg kg^−1 per mouse until their death. Starting on Day 14, gefitinib was given twice weekly by gavage at 150 mg kg^−1 per mouse until their death. The control solvent was given once a day for 5 days every week by gavage according to their body weight until their death. […] The primary tumor volume was calculated as length × width^2 ×π/6.

**Q.** Which growth sensitivity [1] does the source give for COc1cc2ncnc(Nc3ccc(F)c(Cl)c3)c2cc1OCCCN1CCOCC1 [gefitinib, reference compound] here?
**A.** The growth sensitivity was “sensitive”.

**Q.** What about the growth sensitivity [2] of the same molecule?
**A.** The growth sensitivity was “sensitive”.

**Q.** And the growth sensitivity [3]?
**A.** Its growth sensitivity is “sensitive”.

**Q.** What about the “growth of primary tumors” value (MDA-MB-468 tumor cells) of the same molecule?
**A.** The value was “reduced the growth of primary tumors to the same degree”.

**Q.** And the “increase of median overall survival” value (MDA-MB-468 tumor cells)?
**A.** The value was ~ 50%.
